# Source: patent publication US20070292908A1, “Method for Detecting Streptococcus Agalactiae Using Alpha-Glucosidase Activity” (BIOMERIEUX, priority 2004, published 2007)
# Tests used:
# Streptococcus agalactiae [1] = test: Detection of Streptococcus agalactiae strains on reaction media containing an α-glucosidase enzymatic substrate; assay type: cell-based; conditions: substrate 0.1 g/l; for intensity (I) of coloration: arbitrary scale 0 to 4
# Description: The reaction media were prepared by mixing heart-brain extract (4.84 g/l; Solabia), meat infusion (1.96 g/l; Solabia), biothione (1 g/l; Solabia), biotrypcase (7.2 g/l; Solabia), sodium carbonate (0.3 g/l; VWR), sodium pyruvate (2 g/l; Fluka), HEPES buffer (0.4 g/l; Sigma), lactalbumin peptone (2 g/l; DMV), glucose (1 g/l; Merck), American agar (2 g/l; Sobigel) and European agar (12 g/l; Roko).
# The media were then poured into a Petri dish for subsequent inoculation with bacterial strains.
# Eight Streptococcus agalactiae strains derived from the applicant's collection, suspended in physiological saline, were inoculated so as to give isolated colonies on each of the media. The dishes were then incubated at 37° C. for 48 hours. The colonies formed are examined visually after 18, 24 and more than 40 hours of incubation. The coloration of these colonies, the growth and also the intensity of this coloration were noted.
# The results are given in table 1 below and are expressed: • in terms of growth (G) with the size being indicated in mm, • in terms of intensity (1) of coloration based on an arbitrary scale ranging from 0 to 4, 0 corresponding to an absence of activity and 4 corresponding to the presence of a very intense coloration, • in terms of color (Co) with T=turquoise, R=pink or red, Gr=green, Mg=magenta, • according to the incubation time in hours (T).
# Streptococcus agalactiae [2] = test: Number of strains detected as a function of the concentration of α-glucosidase substrate; assay type: cell-based; conditions: positive when I≧0.6, 8 strains
# Text: The above protocol was repeated, with the exception that the concentration of enzymatic substrate was varied.
# Table 2 below gives the number of strains detected (considered to be positive when I≧0.6) as a function of the concentration of substrate.
substance,measurement,setting,value
5-bromo-4-chloro-3-indolyl-N-methyl-α-D-glucopyranoside [GreenA-alpha-Glu],intensity (I) of coloration,"Streptococcus agalactiae [1]; strain 0008200, 18 h",0.5
same,"growth (G), size","Streptococcus agalactiae [1]; strain 0008200, 18 h incubation",0.7 mm
same,intensity (I) of coloration,"Streptococcus agalactiae [1]; strain 0008200, 24 h",0.8
same,"growth (G), size","Streptococcus agalactiae [1]; strain 0008200, 24 h incubation",0.7 mm
same,intensity (I) of coloration,"Streptococcus agalactiae [1]; strain 0008200, >40 h",2
same,"growth (G), size","Streptococcus agalactiae [1]; strain 0008200, >40 h incubation",0.7 mm
same,intensity (I) of coloration,"Streptococcus agalactiae [1]; strain 0008206, 18 h",0.6
same,"growth (G), size","Streptococcus agalactiae [1]; strain 0008206, 18 h incubation",0.7 mm
same,intensity (I) of coloration,"Streptococcus agalactiae [1]; strain 0008206, 24 h",1
same,"growth (G), size","Streptococcus agalactiae [1]; strain 0008206, 24 h incubation",0.7 mm
same,intensity (I) of coloration,"Streptococcus agalactiae [1]; strain 0008206, >40 h",2
same,"growth (G), size","Streptococcus agalactiae [1]; strain 0008206, >40 h incubation",0.8 mm
same,intensity (I) of coloration,"Streptococcus agalactiae [1]; strain 0101060, 18 h",0.8
same,"growth (G), size","Streptococcus agalactiae [1]; strain 0101060, 18 h incubation",0.3 mm
same,intensity (I) of coloration,"Streptococcus agalactiae [1]; strain 0101060, 24 h",1.7
same,"growth (G), size","Streptococcus agalactiae [1]; strain 0101060, 24 h incubation",0.4 mm
same,intensity (I) of coloration,"Streptococcus agalactiae [1]; strain 0101060, >40 h",3.5
same,"growth (G), size","Streptococcus agalactiae [1]; strain 0101060, >40 h incubation",0.5 mm
same,intensity (I) of coloration,"Streptococcus agalactiae [1]; strain 7611003, 18 h",2
same,"growth (G), size","Streptococcus agalactiae [1]; strain 7611003, 18 h incubation",1 mm
same,intensity (I) of coloration,"Streptococcus agalactiae [1]; strain 7611003, 24 h",2
same,"growth (G), size","Streptococcus agalactiae [1]; strain 7611003, 24 h incubation",1.3 mm
same,intensity (I) of coloration,"Streptococcus agalactiae [1]; strain 7611003, >40 h",3
same,"growth (G), size","Streptococcus agalactiae [1]; strain 7611003, >40 h incubation",1.7 mm
same,"growth (G), size","Streptococcus agalactiae [1]; strain 7701031, 18 h incubation",0.5 mm
same,intensity (I) of coloration,"Streptococcus agalactiae [1]; strain 7701031, 24 h",0.3
same,"growth (G), size","Streptococcus agalactiae [1]; strain 7701031, 24 h incubation",0.7 mm
same,intensity (I) of coloration,"Streptococcus agalactiae [1]; strain 7701031, >40 h",0.8
same,"growth (G), size","Streptococcus agalactiae [1]; strain 7701031, >40 h incubation",1.5 mm
same,intensity (I) of coloration,"Streptococcus agalactiae [1]; strain 7702055, 18 h",1
same,"growth (G), size","Streptococcus agalactiae [1]; strain 7702055, 18 h incubation",0.7 mm
same,intensity (I) of coloration,"Streptococcus agalactiae [1]; strain 7702055, 24 h",2
same,"growth (G), size","Streptococcus agalactiae [1]; strain 7702055, 24 h incubation",0.8 mm
same,intensity (I) of coloration,"Streptococcus agalactiae [1]; strain 7702055, >40 h",3
same,"growth (G), size","Streptococcus agalactiae [1]; strain 7702055, >40 h incubation",1.7 mm
same,intensity (I) of coloration,"Streptococcus agalactiae [1]; strain 8709013, 18 h",0.5
same,"growth (G), size","Streptococcus agalactiae [1]; strain 8709013, 18 h incubation",0.4 mm
same,intensity (I) of coloration,"Streptococcus agalactiae [1]; strain 8709013, 24 h",1
same,"growth (G), size","Streptococcus agalactiae [1]; strain 8709013, 24 h incubation",0.5 mm
same,intensity (I) of coloration,"Streptococcus agalactiae [1]; strain 8709013, >40 h",2.7
same,"growth (G), size","Streptococcus agalactiae [1]; strain 8709013, >40 h incubation",0.7 mm
same,intensity (I) of coloration,"Streptococcus agalactiae [1]; strain 8904053, 18 h",0.5
same,"growth (G), size","Streptococcus agalactiae [1]; strain 8904053, 18 h incubation",0.7 mm
same,intensity (I) of coloration,"Streptococcus agalactiae [1]; strain 8904053, 24 h",0.8
same,"growth (G), size","Streptococcus agalactiae [1]; strain 8904053, 24 h incubation",0.7 mm
same,intensity (I) of coloration,"Streptococcus agalactiae [1]; strain 8904053, >40 h",2.3
same,"growth (G), size","Streptococcus agalactiae [1]; strain 8904053, >40 h incubation",1 mm
same,number of strains detected,"Streptococcus agalactiae [2]; substrate 100 mg/l, incubation 24 h",6/8
same,number of strains detected,"Streptococcus agalactiae [2]; substrate 100 mg/l, incubation 48 h",8/8
same,number of strains detected,"Streptococcus agalactiae [2]; substrate 200 mg/l, incubation 24 h",7/8
same,number of strains detected,"Streptococcus agalactiae [2]; substrate 200 mg/l, incubation 48 h",8/8
same,number of strains detected,"Streptococcus agalactiae [2]; substrate 300 mg/l, incubation 24 h",7/8
same,number of strains detected,"Streptococcus agalactiae [2]; substrate 300 mg/l, incubation 48 h",7/8
